Structures can show the parent of a compound that is named as a salt.
T1: ABCG2 (Homo sapiens, UniProt Q9UNQ0)
T1 sequence (Q9UNQ0 1-655): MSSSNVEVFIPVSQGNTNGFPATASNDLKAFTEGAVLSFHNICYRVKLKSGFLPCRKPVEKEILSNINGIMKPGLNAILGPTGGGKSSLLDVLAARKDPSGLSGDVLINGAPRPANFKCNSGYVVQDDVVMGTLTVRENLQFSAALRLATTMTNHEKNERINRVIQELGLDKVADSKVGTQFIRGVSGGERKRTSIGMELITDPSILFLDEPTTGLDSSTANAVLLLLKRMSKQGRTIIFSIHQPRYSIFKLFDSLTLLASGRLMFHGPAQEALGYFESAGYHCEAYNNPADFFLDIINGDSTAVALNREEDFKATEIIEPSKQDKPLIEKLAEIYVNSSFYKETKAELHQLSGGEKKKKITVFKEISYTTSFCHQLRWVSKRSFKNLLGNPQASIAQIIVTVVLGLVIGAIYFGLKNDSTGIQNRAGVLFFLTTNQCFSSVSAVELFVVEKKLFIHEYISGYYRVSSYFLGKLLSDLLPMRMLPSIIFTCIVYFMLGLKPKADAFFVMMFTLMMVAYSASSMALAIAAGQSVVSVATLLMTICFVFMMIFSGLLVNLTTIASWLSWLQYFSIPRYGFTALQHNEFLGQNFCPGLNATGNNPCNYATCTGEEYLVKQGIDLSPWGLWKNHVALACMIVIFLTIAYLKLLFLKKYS

T2: mouse Abcg2 (Mus musculus, UniProt Q7TMS5)
T2 construct: expressed in transfected cells; host or cells: HEK293 (transient transfection, myc-mAbcg2/pcDNA3.1(+)); cell membrane vesicles
T2 sequence (Q7TMS5 1-657): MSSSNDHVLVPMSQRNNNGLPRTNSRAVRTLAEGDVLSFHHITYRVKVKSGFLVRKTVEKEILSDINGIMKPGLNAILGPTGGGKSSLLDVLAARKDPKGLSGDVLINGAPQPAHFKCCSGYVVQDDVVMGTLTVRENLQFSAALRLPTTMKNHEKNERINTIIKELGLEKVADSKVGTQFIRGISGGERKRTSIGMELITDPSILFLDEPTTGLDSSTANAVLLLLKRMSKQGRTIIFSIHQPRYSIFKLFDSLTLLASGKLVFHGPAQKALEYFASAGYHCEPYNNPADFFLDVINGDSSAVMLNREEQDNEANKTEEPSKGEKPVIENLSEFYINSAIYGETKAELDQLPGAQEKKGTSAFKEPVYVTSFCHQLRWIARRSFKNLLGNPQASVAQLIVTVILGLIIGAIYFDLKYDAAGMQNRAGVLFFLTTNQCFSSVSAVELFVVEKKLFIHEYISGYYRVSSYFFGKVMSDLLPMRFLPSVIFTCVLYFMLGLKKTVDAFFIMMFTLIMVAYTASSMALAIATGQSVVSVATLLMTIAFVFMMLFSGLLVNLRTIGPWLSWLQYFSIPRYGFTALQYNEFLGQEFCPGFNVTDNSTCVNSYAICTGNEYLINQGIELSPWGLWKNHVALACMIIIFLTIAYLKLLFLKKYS


What was measured:
ABCG2 [1] = target: T1, ABCG2; assay: inhibition of ABCG2-mediated [3H]estrone-3-sulfate transport in membrane vesicles; conditions: [3H]ES 500 nM, vesicle transport assay, HEK293 membrane vesicles
Excerpt: Wild-type ABCG2 cDNA was inserted into the Nhe I site and Apa I site of pcDNA3.1(+) vector plasmid (Invitrogen, Carlsbad, Calif.), with a myc-tag sequence attached at the 5′ end. To prepare membrane vesicles, HEK293 cells were transiently transfected with an expression vector for ABCG2 or an empty vector using FuGENE6 (Roche Diagnostics, Indianapolis, Ind.). Forty-eight hours later, cells were harvested and the membrane vesicles were isolated using a standard method. The uptake study of [^3H]estrone-3-sulfate (ES, 500 nM) and [^14C]urate (28 μM) was performed.
Using membrane vesicles prepared from ABCG2-expressing cells, the inhibitory effect of urate on ABCG2-mediated transport of its typical substrate, ES (estrone-3-sulfate) was examined.
The inhibitory effect on the transport of [^3H]estrone-3-sulfate (ES, 500 nM), a typical substrate of ABCG2 was examined using the vesicle transport assay system.

ABCG2 [2] = target: T1, ABCG2; conditions: typical ABCG2 substrates, low capacity; read-out: Km value of transport by ABCG2; cited from earlier work
mouse Abcg2 = target: T2, mouse Abcg2; assay: [14C]urate transport in mouse Abcg2-expressing membrane vesicles; format: biochemical; conditions: uric acid 250 μM to 4 mM, cell membrane vesicles
Excerpt: A mouse Abcg2 expression vector was constructed by amplifying a cDNA of mouse Abcg2 with a myc tag sequence attached to the N-terminus, integrating it into pGEM T-Easy Vector (Promega, Madison, Wis.), and then integrating it into a Not I site of a pcDNA3.1(+) vector via a restriction enzyme treatment.
Also, in order to confirm whether or not the mouse Abcg2 transports urate in the same manner as in human ABCG2, HEK293 cells into which the mouse myc-Abcg2 expression vector was transiently introduced were recovered, and cell membrane vesicles were prepared.
Transport experiments were performed using cell membrane vesicles and using radioisotope-labeled uric acid as a substrate. As a result, it was confirmed that the mouse Abcg2 also transports uric acid in the same manner as in human ABCG2. Also, transport experiments were performed in uric acid concentrations of 250 μM, 500 μM, 1 mM, 1.5 mM, 2 mM, and 4 mM, respectively. […] Whereby, it was shown that mouse Abcg2 is a high-capacity urate transporter which can function even in the presence of a high concentration of uric acid.

[3] = substrate: O=c1[nH]c(=O)c2[nH]c(=O)[nH]c2[nH]1; assay: ATP-dependent [14C]urate transport in ABCG2-expressing membrane vesicles; format: biochemical, human; conditions: other: membrane vesicles from ABCG2-expressing HEK293 cells
Method: As shown in FIG. 3 (A), an ATP-dependent urate transport was detected in ABCG2-expressing vesicles but not in control vesicles. This is the first evidence of a direct high-capacity urate transport via ABCG2. Because of a mild inhibitory effect on the ES transport, urate was assumed to be a high-capacity substrate of ABCG2. Indeed, as shown in FIG. 3 (B), ABCG2-mediated urate transport scarcely reached saturation at concentrations of 1 mM or less.
Typical ABCG2 substrates, e.g., sulfate conjugates such as ES, 4-methylumbelliferone sulfate, and E3040 sulfate, are transported by ABCG2 with low capacity (Km value of about 20 μM).

| Molecule | inhibitory effect on the transport of [3H]estrone-3-sulfate (ABCG2 [1]) | Km (ABCG2 [2]) | other results |
| --- | --- | --- | --- |
| Cc1cc(=O)oc2cc(OS(=O)(=O)O)ccc12 [4-methylumbelliferone sulfate] |  | ~20 µM |  |
| O=c1[nH]c(=O)c2[nH]c(=O)[nH]c2[nH]1 [urate] |  |  | saturability of urate transport via mouse Abcg2 (mouse Abcg2): no saturability |
| CNc1nc2c(Cc3cccnc3)c(C)c(OS(=O)(=O)O)c(C)c2s1 [E3040 sulfate] |  | ~20 µM |  |
| ABCG2 (Homo sapiens) (protein, expressed in transfected cells; host or cells: HEK293 (transient transfection, pcDNA3.1(+)); isolated membrane vesicles) MSSSNVEVFIPVSQGNTNGFPATASNDLKAFTEGAVLSFHNICYRVKLKSGFLPCRKPVEKEILSNINGIMKPGLNAILGPTGGGKSSLLDVLAARKDPSGLSGDVLINGAPRPANFKCNSGYVVQDDVVMGTLTVRENLQFSAALRLATTMTNHEKNERINRVIQELGLDKVADSKVGTQFIRGVSGGERKRTSIGMELITDPSILFLDEPTTGLDSSTANAVLLLLKRMSKQGRTIIFSIHQPRYSIFKLFDSLTLLASGRLMFHGPAQEALGYFESAGYHCEAYNNPADFFLDIINGDSTAVALNREEDFKATEIIEPSKQDKPLIEKLAEIYVNSSFYKETKAELHQLSGGEKKKKITVFKEISYTTSFCHQLRWVSKRSFKNLLGNPQASIAQIIVTVVLGLVIGAIYFGLKNDSTGIQNRAGVLFFLTTNQCFSSVSAVELFVVEKKLFIHEYISGYYRVSSYFLGKLLSDLLPMRMLPSIIFTCIVYFMLGLKPKADAFFVMMFTLMMVAYSASSMALAIAAGQSVVSVATLLMTICFVFMMIFSGLLVNLTTIASWLSWLQYFSIPRYGFTALQHNEFLGQNFCPGLNATGNNPCNYATCTGEEYLVKQGIDLSPWGLWKNHVALACMIVIFLTIAYLKLLFLKKYS |  |  | Km [3]: 8240 ± 1440 µM; Vmax [3]: 6.96 ± 0.89 nmol/min/mg (protein) |

Continued, in another order:

| inhibitory effect on the transport of [3H]estrone-3-sulfate (ABCG2 [1]) | Molecule | Km (ABCG2 [2]) | other results |
| --- | --- | --- | --- |
| inhibition | Cc1cn([C@H]2C[C@H](N=[N+]=[N-])[C@@H](CO)O2)c(=O)[nH]c1=O [AZT, 3′-azido-3′-deoxythymidine] |  |  |
| inhibition | C[C@]12CC[C@@H]3c4ccc(OS(=O)(=O)O)cc4CC[C@H]3[C@@H]1CCC2=O [ES, estrone-3-sulfate] | ~20 µM |  |
